Measurements reported in patent publication US20120183489A1, “COMPOSITIONS COMPRISING METALLATED MALODOR CONTROL POLYMERS” (priority 2011, published 2012).

Assays:
[1] = Sulfur odor control performance, headspace SPME GC/MS, dipropylsulfide; conditions: 5 ml test solution spiked with 3 ppm; 2 h room temperature, 30 min 35° C.; Control = 1.0
Method: (§1) Butanethiol and dipropoyl sulfide were chosen as chemical surrogates for sulfur containing odors such as kitchen (onion/garlic), sewage, etc. These two molecules also enable the assessment of efficacy of polymer for sulfur molecules having different degrees of hydrophobicity (e.g more hydrophobic dipropylsulfide is usually harder to mitigate with hydrophilic technologies such as cyclodextrin). 5 ml test solution was placed in a GC-MS vial and spiked with 3 parts-per-million of butanethiol or dipropylsulfide. The solutions were first equilibrated at room temperature for 2 hours, then incubated at 35° C. for 30 minutes. The headspace of each vial was finally sampled using a PDMS/SPME fiber and analyzed by GC/MS. The reductions in head space concentrations of sulfur molecules were measured and the data were normalized to Control (Table 4).

[2] = Malodor control performance, headspace SPME GC/MS, nonanal; conditions: 5 ml test solution spiked with 5 microliters; 2 h room temperature, 30 min 35° C.; Control = 1.0; pH 7 (ZnCl2 pH 5)
Method: (§2) This example illustrates the malodor efficacy of the HMPs of the present invention. Isovaleric acid was chosen as a chemical surrogate for body odor while butylamine was used as a representative for amine-containing odors such as fish, pet urine, etc. Hydrophobic greasy cooking odors were represented by aldehydes such as nonanal. The solutions are first equilibrated at room temperature for 2 hours, then incubated at 35° C. for 30 minutes. The headspace of each vial is finally sampled using a polydimethyl siloxane (PDMS)/Solid-Phase-Micro-Extraction (SPME) fiber and analyzed by GC/MS. The reductions in head space concentrations of odor molecules are measured and the data are normalized to Control. Lower numbers denote […] of malodor molecules present in the solution that are attributed to high malodor control efficacy of polymers.

[3] = system: microbes of soiled sponge samples; assay: Odor prevention through microbe reduction, SOLARIS colorimetric detection on soiled sponge; type: cell-based; conditions: soiled sponge treated 15 min, dried 12 h; incubated 120 hrs at 37° C.; Control 2.35 hrs
Method: The Control formulation containing no malodor control polymer or zinc salt, and Formulations containing individual polymers, zinc salts, and zinc-polymer complexes are compared for their effect on odor prevention, through microbe reduction.
Soiled sponge samples were cut into 1×6 cm strips and treated with the solutions (Table 5) for 15 minutes and dried at ambient temperature for 12 hours. The treated 1 cm strips were then cut into 1×1 cm pieces, placed into SOLARIS scintillation vials, and 1 ml of MOPS buffer was added. The open vials were placed into outer SOLARIS vials containing thymolphthalein blue pH indicator and the vials were finally capped. The sealed vials were placed into a SOLARIS machine and incubated for 120 hrs at 37° C. Colorimetric measurements were conducted according to SOLARIS VIV protocol and the detection times of acidic respiratory byproducts were record (Table 5).

[4] = Malodor control performance, headspace SPME GC/MS, butylamine; conditions: 5 ml test solution spiked with 5 microliters; 2 h room temperature, 30 min 35° C.; Control = 1.0; pH 7 (ZnCl2 pH 5)
Method: as §2

[5] = Malodor control performance, headspace SPME GC/MS, isovaleric acid; conditions: 5 ml test solution spiked with 5 microliters; 2 h room temperature, 30 min 35° C.; Control = 1.0; pH 7 (ZnCl2 pH 5)
Method: as §2

[6] = Sulfur odor control performance, headspace SPME GC/MS, butanethiol; conditions: 5 ml test solution spiked with 3 ppm; 2 h room temperature, 30 min 35° C.; Control = 1.0
Method: as §1

[7] = benchmark values; cited from earlier work

| Compound | head space concentration of Dipropylsulfide normalized to Control [1] | head space concentration of Nonanal (Grease) normalized to Control [2] | Respiratory Byproducts Detection Time [3] [h] | head space concentration of Butylamine (Fish) normalized to Control [4] | head space concentration of Isovaleric Acid (Body) normalized to Control [5] | head space concentration of Butanethiol normalized to Control [6] | ambient temperature water solubility (benchmark) [7] [g/100 ml] |
| --- | --- | --- | --- | --- | --- | --- | --- |
| [Cl-].[Cl-].[Zn+2] [ZnCl2, zinc chloride] | 1.0 | 1.0 | 3.38 | 0.0 | 1.0 | 0.8 | – |
| OC[C@H]1O[C@@H]2O[C@H]3[C@H](O)[C@@H](O)[C@@H](O[C@H]4[C@H](O)[C@@H](O)[C@@H](O[C@H]5[C@H](O)[C@@H](O)[C@@H](O[C@H]6[C@H](O)[C@@H](O)[C@@H](O[C@H]7[C@H](O)[C@@H](O)[C@@H](O[C@H]8[C@H](O)[C@@H](O)[C@@H](O[C@H]1[C@H](O)[C@H]2O)O[C@@H]8CO)O[C@@H]7CO)O[C@@H]6CO)O[C@@H]5CO)O[C@@H]4CO)O[C@@H]3CO [beta-cyclodextrin] | – | – | – | – | – | – | 1.8 |
| hydroxypropyl modified beta cyclodextrin | – | – | – | – | – | – | ≥ 60 |
